Measurements published in ChEMBL document CHEMBL1156140, “Synthesis and antitumor-evaluation of cyclopropyl-containing combretastatin analogs” (Bioorg Med Chem Lett, 2009).

What was measured:
HeLa = assay: Cytotoxicity against human HeLa cells by MTT assay; type: functional, cell-based
MCF7 = assay: Cytotoxicity against human MCF7 cells by MTT assay; type: functional, cell-based

Row | SMILES | IC50 (HeLa; Homo sapiens, HeLa) | IC50 (MCF7; Homo sapiens, MCF7) | IC50 (HeLa; hela) | IC50 (MCF7; mcf7)
1 | COc1ccc(/C=C\c2cc(OC)c(OC)c(OC)c2)cc1N | 0.53 nM | 3.5 nM |  | 
2 | COc1ccc(C#Cc2cc(OC)c(OC)c(OC)c2)cc1O | 1540 nM | 1640 nM |  | 
3 | COCOc1cc(C#Cc2cc(OC)c(OC)c(OC)c2)ccc1OC | 26800 nM | 25600 nM |  | 
4 | COc1ccc(C2CC2c2cc(OC)c(OC)c(OC)c2)cc1NC(=O)[C@@H](N)CO (stereo not given in full) [listing 1 of 2 here] |  |  | 32 nM | 63 nM
5 | COc1ccc(C2CC2c2cc(OC)c(OC)c(OC)c2)cc1NC(=O)OC(C)(C)C (stereo not given) | 10100 nM | 11800 nM |  | 
6 | COc1ccc(C#Cc2cc(OC)c(OC)c(OC)c2)cc1NC(=O)OC(C)(C)C | > 30000 nM | > 30000 nM |  | 
7 | COc1ccc(C2CC2c2cc(OC)c(OC)c(OC)c2)cc1OP(=O)(OCc1ccccc1)OCc1ccccc1 (stereo not given) | 10200 nM | 10800 nM |  | 
8 | COc1ccc(/C=C\c2cc(OC)c(OC)c(OC)c2)cc1OP(=O)(OCc1ccccc1)OCc1ccccc1 | 246 nM | 1170 nM |  | 
9 | COCOc1cc(C2CC2c2cc(OC)c(OC)c(OC)c2)ccc1OC (stereo not given) | 24000 nM | 14000 nM |  | 
10 | COc1ccc(/C=C\c2cc(OC)c(OC)c(OC)c2)cc1NC(=O)OC(C)(C)C | 1170 nM | 3850 nM |  | 
11 | COc1ccc(C2CC2c2cc(OC)c(OC)c(OC)c2)cc1N (stereo not given) | 41 nM | 212 nM |  | 
12 | COCOc1cc(/C=C\c2cc(OC)c(OC)c(OC)c2)ccc1OC | 197 nM | 269 nM |  | 
13 | COc1ccc(C#Cc2cc(OC)c(OC)c(OC)c2)cc1N | > 30000 nM | > 30000 nM |  | 
14 | COc1ccc([C@@H]2C[C@@H]2c2cc(OC)c(OC)c(OC)c2)cc1O | 28 nM | 102 nM |  | 
15 | COc1ccc(C2CC2c2cc(OC)c(OC)c(OC)c2)cc1NC(=O)[C@@H](N)CO (stereo not given in full) [listing 2 of 2 here] |  |  | 432 nM | 670 nM
16 | COc1ccc(C2CC2c2cc(OC)c(OC)c(OC)c2)cc1OP(=O)(O)O (stereo not given) | 370 nM | 297 nM |  | 
17 | COc1ccc(/C=C\c2cc(OC)c(OC)c(OC)c2)cc1NC(=O)[C@@H](N)CO |  |  | 3.7 nM | 25 nM
18 | COc1ccc(/C=C\c2cc(OC)c(OC)c(OC)c2)cc1O [COMBRETASTATIN A4] | 0.51 nM | 2.4 nM |  | 
19 | COc1ccc(/C=C\c2cc(OC)c(OC)c(OC)c2)cc1OP(=O)(O)O [FOSBRETABULIN DISODIUM] | 0.43 nM | 2 nM |  | 
20 | COc1ccc(/C=C\c2cc(OC)c(OC)c(OC)c2)cc1NC(=O)[C@@H](N)CO [OMBRABULIN] |  |  | 0.72 nM | 3.1 nM
